From the supplement of paper PMC6411743

Compound: Nc1ncnc2c1ncn2[C@@H]1O[C@H](COP(=O)(O)OP(=O)(O)OP(=O)(O)O)[C@@H](O)[C@H]1O [adenosine triphosphate]
Assay: pEC50 of ATP-induced change in protein thermal stability (2D-TPP)
Outline: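 pEC50 was obtained by fitting dose-response curves for each replicate over pairs of adjacent temperatures, and hits were assigned using permutation-based false discovery rate control. The input came from Jurkat crude lysate treated with five concentrations including vehicle (10 min, room temperature), heated at 12 temperatures from 42 to 63.9 °C for 3 min, then given NP40 and benzonase (60 min, 4 °C). After ultracentrifugation, soluble protein was quantified by TMT LC-MS/MS as median-normalised fold changes versus vehicle per temperature, across three independent experiments.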
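Note: lysate dosed with Na-ATP at 0 0.005 0.05 0.5 and 2 mM.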

UniProt Q8N9R8, sequence (Q8N9R8 whole entry): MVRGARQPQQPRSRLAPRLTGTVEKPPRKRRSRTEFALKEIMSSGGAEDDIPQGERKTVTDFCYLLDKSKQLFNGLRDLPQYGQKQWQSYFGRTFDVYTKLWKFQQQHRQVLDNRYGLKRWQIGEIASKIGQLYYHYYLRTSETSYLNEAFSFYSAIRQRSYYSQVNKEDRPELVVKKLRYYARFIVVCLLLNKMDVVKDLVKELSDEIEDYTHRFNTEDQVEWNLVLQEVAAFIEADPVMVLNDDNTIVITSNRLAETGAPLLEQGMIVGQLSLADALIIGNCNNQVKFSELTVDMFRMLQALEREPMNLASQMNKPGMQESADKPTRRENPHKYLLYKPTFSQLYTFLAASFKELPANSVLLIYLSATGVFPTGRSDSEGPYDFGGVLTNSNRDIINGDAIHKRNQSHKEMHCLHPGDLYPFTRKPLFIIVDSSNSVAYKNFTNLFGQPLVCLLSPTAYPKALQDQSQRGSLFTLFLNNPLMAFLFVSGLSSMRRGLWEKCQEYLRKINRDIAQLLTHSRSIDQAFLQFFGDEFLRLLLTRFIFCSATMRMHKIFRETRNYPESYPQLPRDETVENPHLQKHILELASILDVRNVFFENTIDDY
UniProt Q12905, sequence (Q12905 whole entry): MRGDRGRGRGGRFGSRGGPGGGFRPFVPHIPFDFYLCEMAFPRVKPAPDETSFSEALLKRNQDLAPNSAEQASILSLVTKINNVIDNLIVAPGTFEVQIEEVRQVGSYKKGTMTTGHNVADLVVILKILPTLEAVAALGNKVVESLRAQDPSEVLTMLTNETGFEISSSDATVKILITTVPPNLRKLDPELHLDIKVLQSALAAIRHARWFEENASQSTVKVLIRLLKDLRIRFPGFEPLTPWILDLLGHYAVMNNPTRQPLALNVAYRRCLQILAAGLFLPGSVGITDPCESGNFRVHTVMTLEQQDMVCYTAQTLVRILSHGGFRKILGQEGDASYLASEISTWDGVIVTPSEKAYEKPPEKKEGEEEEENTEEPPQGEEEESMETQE
UniProt Q92841, sequence (Q92841 whole entry): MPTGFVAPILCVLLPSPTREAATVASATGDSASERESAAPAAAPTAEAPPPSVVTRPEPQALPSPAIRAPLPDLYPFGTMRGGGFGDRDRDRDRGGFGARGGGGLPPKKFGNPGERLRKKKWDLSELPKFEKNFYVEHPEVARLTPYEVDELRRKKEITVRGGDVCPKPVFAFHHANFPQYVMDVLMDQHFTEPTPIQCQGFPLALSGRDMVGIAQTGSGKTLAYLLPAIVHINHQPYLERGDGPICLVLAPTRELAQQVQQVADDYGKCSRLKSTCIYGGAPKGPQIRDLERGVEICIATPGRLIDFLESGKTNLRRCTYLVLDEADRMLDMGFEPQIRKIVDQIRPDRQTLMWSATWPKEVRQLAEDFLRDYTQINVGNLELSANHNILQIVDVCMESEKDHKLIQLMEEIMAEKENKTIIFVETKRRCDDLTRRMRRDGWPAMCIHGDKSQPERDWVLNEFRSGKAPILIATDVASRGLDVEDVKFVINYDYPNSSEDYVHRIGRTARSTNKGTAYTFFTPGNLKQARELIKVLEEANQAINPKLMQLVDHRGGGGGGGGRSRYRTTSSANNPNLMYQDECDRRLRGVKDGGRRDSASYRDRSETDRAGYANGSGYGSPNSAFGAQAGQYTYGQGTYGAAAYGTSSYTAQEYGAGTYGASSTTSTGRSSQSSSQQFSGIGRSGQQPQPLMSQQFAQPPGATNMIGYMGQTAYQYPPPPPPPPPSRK
UniProt Q14562, sequence (Q14562 whole entry): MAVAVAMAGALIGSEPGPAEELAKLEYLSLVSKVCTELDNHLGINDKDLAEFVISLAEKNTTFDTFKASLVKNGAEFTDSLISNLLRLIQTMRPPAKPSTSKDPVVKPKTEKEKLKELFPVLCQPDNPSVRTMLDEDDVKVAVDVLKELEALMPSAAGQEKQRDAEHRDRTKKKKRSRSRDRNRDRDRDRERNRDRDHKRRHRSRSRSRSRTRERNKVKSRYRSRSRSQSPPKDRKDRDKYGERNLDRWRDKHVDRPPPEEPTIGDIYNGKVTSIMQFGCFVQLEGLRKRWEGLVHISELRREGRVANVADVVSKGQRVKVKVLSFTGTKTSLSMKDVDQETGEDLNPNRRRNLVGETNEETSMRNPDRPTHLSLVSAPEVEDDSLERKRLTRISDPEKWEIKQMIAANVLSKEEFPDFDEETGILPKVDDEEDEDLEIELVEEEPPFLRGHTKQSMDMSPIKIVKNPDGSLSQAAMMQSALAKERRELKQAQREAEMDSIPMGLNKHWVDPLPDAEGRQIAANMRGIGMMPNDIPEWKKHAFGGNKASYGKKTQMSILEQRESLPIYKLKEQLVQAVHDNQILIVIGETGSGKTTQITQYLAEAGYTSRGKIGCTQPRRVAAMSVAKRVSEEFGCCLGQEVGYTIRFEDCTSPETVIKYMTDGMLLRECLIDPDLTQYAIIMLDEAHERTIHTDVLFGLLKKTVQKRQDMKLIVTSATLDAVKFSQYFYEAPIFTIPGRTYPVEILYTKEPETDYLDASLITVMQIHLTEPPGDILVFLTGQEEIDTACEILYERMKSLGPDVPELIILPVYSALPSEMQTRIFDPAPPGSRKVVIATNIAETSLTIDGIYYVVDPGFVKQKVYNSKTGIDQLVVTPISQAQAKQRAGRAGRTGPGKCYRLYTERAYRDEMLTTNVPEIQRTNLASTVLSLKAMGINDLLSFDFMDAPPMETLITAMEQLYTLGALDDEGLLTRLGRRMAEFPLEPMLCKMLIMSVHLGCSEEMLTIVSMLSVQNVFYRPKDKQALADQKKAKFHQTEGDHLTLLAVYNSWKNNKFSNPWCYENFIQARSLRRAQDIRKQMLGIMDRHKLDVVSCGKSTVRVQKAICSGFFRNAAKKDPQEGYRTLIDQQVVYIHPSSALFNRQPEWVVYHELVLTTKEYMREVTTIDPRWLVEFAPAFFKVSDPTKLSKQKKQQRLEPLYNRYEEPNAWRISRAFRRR
UniProt Q96EK5, sequence (Q96EK5 whole entry): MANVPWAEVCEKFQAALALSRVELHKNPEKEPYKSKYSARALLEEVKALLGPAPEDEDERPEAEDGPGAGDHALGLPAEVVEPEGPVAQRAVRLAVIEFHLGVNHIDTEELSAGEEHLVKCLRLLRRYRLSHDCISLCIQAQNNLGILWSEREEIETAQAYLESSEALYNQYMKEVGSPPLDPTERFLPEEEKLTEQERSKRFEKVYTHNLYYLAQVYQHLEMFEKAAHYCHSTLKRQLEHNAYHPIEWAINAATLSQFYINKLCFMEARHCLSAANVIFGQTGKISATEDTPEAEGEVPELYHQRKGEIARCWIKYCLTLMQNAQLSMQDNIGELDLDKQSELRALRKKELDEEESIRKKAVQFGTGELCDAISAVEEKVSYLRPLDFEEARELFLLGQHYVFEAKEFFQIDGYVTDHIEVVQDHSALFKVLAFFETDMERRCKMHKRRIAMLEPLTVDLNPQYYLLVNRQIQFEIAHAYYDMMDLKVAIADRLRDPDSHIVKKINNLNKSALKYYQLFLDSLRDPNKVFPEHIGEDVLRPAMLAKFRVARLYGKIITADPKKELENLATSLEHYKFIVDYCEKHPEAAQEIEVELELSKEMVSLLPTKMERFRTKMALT
UniProt Q92615, sequence (Q92615 whole entry): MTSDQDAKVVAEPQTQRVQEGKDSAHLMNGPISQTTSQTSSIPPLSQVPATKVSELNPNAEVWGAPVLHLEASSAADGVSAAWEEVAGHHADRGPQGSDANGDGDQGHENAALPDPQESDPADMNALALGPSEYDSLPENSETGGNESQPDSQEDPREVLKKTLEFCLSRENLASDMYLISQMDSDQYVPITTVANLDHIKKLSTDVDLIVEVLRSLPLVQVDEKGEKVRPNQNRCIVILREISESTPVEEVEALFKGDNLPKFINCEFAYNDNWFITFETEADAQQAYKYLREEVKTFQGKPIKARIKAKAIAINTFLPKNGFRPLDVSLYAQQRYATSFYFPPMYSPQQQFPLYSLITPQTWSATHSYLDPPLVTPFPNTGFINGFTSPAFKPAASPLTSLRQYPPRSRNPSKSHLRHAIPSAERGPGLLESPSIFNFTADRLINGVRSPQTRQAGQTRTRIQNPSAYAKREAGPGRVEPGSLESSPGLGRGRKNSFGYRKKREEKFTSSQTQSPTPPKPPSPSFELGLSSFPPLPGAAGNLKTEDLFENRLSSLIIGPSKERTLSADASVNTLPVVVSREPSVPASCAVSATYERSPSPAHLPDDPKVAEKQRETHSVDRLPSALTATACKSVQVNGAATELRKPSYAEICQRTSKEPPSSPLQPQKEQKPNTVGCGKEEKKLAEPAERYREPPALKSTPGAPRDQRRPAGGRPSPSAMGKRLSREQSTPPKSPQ
UniProt Q16181, sequence (Q16181 whole entry): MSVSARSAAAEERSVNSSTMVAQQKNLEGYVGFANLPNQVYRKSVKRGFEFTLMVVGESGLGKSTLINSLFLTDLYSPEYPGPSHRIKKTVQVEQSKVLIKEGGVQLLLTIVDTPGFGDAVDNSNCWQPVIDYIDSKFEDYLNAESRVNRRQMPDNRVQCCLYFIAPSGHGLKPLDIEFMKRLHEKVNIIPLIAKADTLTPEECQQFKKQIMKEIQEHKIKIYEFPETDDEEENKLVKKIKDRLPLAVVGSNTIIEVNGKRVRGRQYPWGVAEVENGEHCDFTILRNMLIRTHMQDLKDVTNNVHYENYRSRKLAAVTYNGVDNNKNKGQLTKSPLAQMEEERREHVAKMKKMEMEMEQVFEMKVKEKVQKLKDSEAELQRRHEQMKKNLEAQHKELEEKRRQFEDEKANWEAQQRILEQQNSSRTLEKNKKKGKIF
UniProt Q7L9L4, sequence (Q7L9L4 whole entry): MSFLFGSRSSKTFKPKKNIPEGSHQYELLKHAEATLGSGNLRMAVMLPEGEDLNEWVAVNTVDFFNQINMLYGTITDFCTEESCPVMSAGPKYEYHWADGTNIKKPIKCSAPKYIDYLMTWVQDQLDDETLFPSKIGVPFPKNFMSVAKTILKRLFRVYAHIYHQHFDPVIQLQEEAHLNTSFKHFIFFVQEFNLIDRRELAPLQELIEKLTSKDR

Target	pEC50
UniProt Q7L9L4 (effect direction: stabilized)	2.98
UniProt Q7Z3D6 (effect direction: destabilized)	2.79
UniProt Q8N2M8 (effect direction: stabilized)	< 2.7
UniProt Q8NBU5 (effect direction: stabilized)	3.06
UniProt Q8NI60 (effect direction: stabilized)	3.73
UniProt Q8TBX8 (effect direction: stabilized)	3.04
UniProt Q8WXA9 (effect direction: stabilized)	3.39
UniProt Q8WYJ6 (effect direction: stabilized)	< 2.7
UniProt Q9BQ61 (effect direction: destabilized)	3.66
UniProt Q9BQ75 (effect direction: stabilized)	< 2.7
UniProt Q9BSJ8 (effect direction: stabilized)	3.08
UniProt Q9NYL2 (effect direction: stabilized)	3.65
UniProt Q9NYV4 (effect direction: stabilized)	2.75
UniProt Q9P289 (effect direction: stabilized)	3.21
UniProt Q9UKZ1 (effect direction: stabilized)	3.4
UniProt Q9Y2H1 (effect direction: stabilized)	3.71
UniProt Q9Y2U5 (effect direction: stabilized)	3.72
UniProt Q9Y6E0 (effect direction: stabilized)	3.56
UniProt Q9Y530 (effect direction: stabilized)	2.97
UniProt Q63HN8 (effect direction: stabilized)	3

Target	pEC50
UniProt Q86U38 (effect direction: stabilized)	< 2.7
UniProt Q96C57 (effect direction: destabilized)	4.35
UniProt Q96G23 (effect direction: stabilized)	3.02
UniProt Q147X3 (effect direction: stabilized)	2.88
UniProt Q02750 (effect direction: stabilized)	4.06
UniProt Q08623 (effect direction: destabilized)	< 2.7
UniProt Q12905 (effect direction: stabilized)	2.84
UniProt Q13043 (effect direction: stabilized)	3.38
UniProt Q13131 (effect direction: stabilized)	3.29
UniProt Q13188 (effect direction: stabilized)	3.25
UniProt Q13885 (effect direction: stabilized)	3.12
UniProt Q14004 (effect direction: stabilized)	3.59
UniProt Q15149 (effect direction: stabilized)	2.72
UniProt Q16181 (effect direction: stabilized)	< 2.7
UniProt Q92888 (effect direction: stabilized)	< 2.7
UniProt Q92918 (effect direction: stabilized)	3.83
VPS35 (effect direction: stabilized) (UniProt Q96QK1)	< 2.7
WDR33 (effect direction: stabilized) (UniProt Q9C0J8)	< 2.7
XPO1 (effect direction: stabilized) (UniProt O14980)	< 2.7

Further lines, results first:

pEC50	Target
3.74	UniProt Q6ZUM4 (effect direction: stabilized)
2.78	UniProt Q7Z2Z2 (effect direction: stabilized)
3.14	UniProt Q8N1G2 (effect direction: stabilized)
3.74	UniProt Q8N4C8 (effect direction: stabilized)
3.01	UniProt Q8N9R8 (effect direction: stabilized)
2.9	UniProt Q8N163 (effect direction: stabilized)
3.84	UniProt Q9BXW7 (effect direction: destabilized)
3.25	UniProt Q9BY42 (effect direction: destabilized)
3.72	UniProt Q9HCP0 (effect direction: stabilized)
3.46	UniProt Q9NQ88 (effect direction: stabilized)
3.74	UniProt Q9NQG6 (effect direction: stabilized)
2.72	UniProt Q9NZM5 (effect direction: destabilized)
3.47	UniProt Q9UBD5 (effect direction: stabilized)
3.34	UniProt Q9UH99 (effect direction: stabilized)
3.96	UniProt Q9UPN6 (effect direction: stabilized)
2.97	UniProt Q9UPN7 (effect direction: stabilized)
3.43	UniProt Q9Y2K2 (effect direction: stabilized)
3.07	UniProt Q86V81 (effect direction: destabilized)
3.16	UniProt Q96BW9 (effect direction: stabilized)
2.96	UniProt Q96EK5 (effect direction: stabilized)

pEC50	Target
2.73	UniProt Q00537 (effect direction: stabilized)
3.91	UniProt Q05655 (effect direction: stabilized)
3.4	UniProt Q13416 (effect direction: stabilized)
3.54	UniProt Q14240 (effect direction: stabilized)
3.03	UniProt Q14289 (effect direction: stabilized)
3.56	UniProt Q14562 (effect direction: stabilized)
3.22	UniProt Q15046 (effect direction: stabilized)
3.24	UniProt Q15208 (effect direction: stabilized)
< 2.7	UniProt Q15257 (effect direction: stabilized)
3.77	UniProt Q15418 (effect direction: stabilized)
3.18	UniProt Q92600 (effect direction: stabilized)
3.16	UniProt Q92615 (effect direction: stabilized)
3.79	UniProt Q92841 (effect direction: stabilized)
3.22	VARS2 (effect direction: stabilized) (UniProt Q5ST30)
3.24	VTN (effect direction: destabilized) (UniProt P04004)
< 2.7	WDR1 (effect direction: stabilized) (UniProt O75083)
2.85	WDR61 (effect direction: stabilized) (UniProt Q9GZS3)
4.09	WRN (effect direction: stabilized) (UniProt Q14191)
2.77	XPNPEP1 (effect direction: stabilized) (UniProt Q9NQW7)
